# Where two headings read alike, the source gives them in different places.
# Test system: Pomacea canaliculata
# Experiment: Immersion test of dilutions in beakers, mortality rate of Pomacea canaliculata
# Format: in vivo
# Conditions: for mortality at 0.0039 µg/mL / mortality at 0.0078 µg/mL / mortality at 0.0156 µg/mL / mortality at 0.0312 µg/mL / mortality at 0.0625 µg/mL / mortality at 0.125 µg/mL / mortality at 0.25 µg/mL / mortality at 0.5 µg/mL: Pomacea canaliculata, read-out: Mortality rate (%) of Pomacea canaliculata at different action time (h); for mortality at 0.0039 µg/mL: 0.0039 mg/L; for mortality at 0.0078 µg/mL: 0.0078 mg/L; for mortality at 0.0156 µg/mL: 0.0156 mg/L; for mortality at 0.0312 µg/mL: 0.0312 mg/L; for mortality at 0.125 µg/mL: 0.125 mg/L; for mortality at 0.25 µg/mL: 0.25 mg/L; for mortality at 0.5 µg/mL: 0.5 mg/L
# Description: 0.5 mg of 4-nitro-3-(trifluoromethyl)phenol and 0.5 mg of niclosamide were completely dissolved in 1 mL of a dimethyl sulfoxide (DMSO) solution separately, and diluted to 1,000 mL with deaminized water to obtain a 4-nitro-3-(trifluoromethyl)phenol solution with a concentration of 0.5 mg/L and a niclosamide solution with a concentration of 0.5 mg/L.
# The two solutions were separately diluted into 7 concentrations of dilutions using a doubling dilution method, including 0.25 mg/L, 0.125 mg/L, 0.0625 mg/L, 0.0312 mg/L, 0.0156 mg/L, and 0.0078 mg/L, and 0.0039 mg/L.
# 400 mL of the dilutions with different concentrations were separately poured into a 500 mL beaker, 10 Pomacea canaliculata samples were put into the dilution of each concentration, and each bottle mouth was sealed with wire mesh to completely immerse the Pomacea canaliculata in the dilution; clear water was used as a control group.
# The experimental data were used to calculate the mortality rate of each treatment according to the following formula. Each calculation result was rounded to two decimal places. A formula for calculating the mortality rate was: […]
# In the formula: P represented the mortality rate, in percentage (%); Σ^Ki represented • the number of dead Pomacea canaliculata, in snails; Σ^Ni represented the total number of treated Pomacea canaliculata, in snails.
smiles,measurement,setting,value
O=[N+]([O-])c1ccc(O)cc1C(F)(F)F [4-nitro-3-(trifluoromethyl)phenol],killing of Pomacea canaliculata (in words),"0.0625 mg/L, action time of 24 h",could kill all Pomacea canaliculata
same,mortality at 0.0039 µg/mL,action time 0 h,0%
same,mortality at 0.0039 µg/mL,action time 12 h,0%
same,mortality at 0.0039 µg/mL,action time 24 h,20%
same,mortality at 0.0039 µg/mL,action time 36 h,50%
same,mortality at 0.0039 µg/mL,action time 48 h,50%
same,mortality at 0.0039 µg/mL,action time 60 h,50%
same,mortality at 0.0039 µg/mL,action time 72 h,70%
same,mortality at 0.0078 µg/mL,action time 0 h,0%
same,mortality at 0.0078 µg/mL,action time 12 h,0%
same,mortality at 0.0078 µg/mL,action time 24 h,40%
same,mortality at 0.0078 µg/mL,action time 36 h,100%
same,mortality at 0.0078 µg/mL,action time 48 h,100%
same,mortality at 0.0078 µg/mL,action time 60 h,100%
same,mortality at 0.0078 µg/mL,action time 72 h,100%
same,mortality at 0.0156 µg/mL,action time 0 h,0%
same,mortality at 0.0156 µg/mL,action time 12 h,10%
same,mortality at 0.0156 µg/mL,action time 24 h,100%
same,mortality at 0.0156 µg/mL,action time 36 h,100%
same,mortality at 0.0156 µg/mL,action time 48 h,100%
same,mortality at 0.0156 µg/mL,action time 60 h,100%
same,mortality at 0.0156 µg/mL,action time 72 h,100%
same,mortality at 0.0312 µg/mL,action time 0 h,0%
same,mortality at 0.0312 µg/mL,action time 12 h,30%
same,mortality at 0.0312 µg/mL,action time 24 h,100%
same,mortality at 0.0312 µg/mL,action time 36 h,100%
same,mortality at 0.0312 µg/mL,action time 48 h,100%
same,mortality at 0.0312 µg/mL,action time 60 h,100%
same,mortality at 0.0312 µg/mL,action time 72 h,100%
same,mortality at 0.0625 µg/mL,"0.0625 mg/L, action time 0 h",0%
same,mortality at 0.0625 µg/mL,"0.0625 mg/L, action time 12 h",70%
same,mortality at 0.0625 µg/mL,"0.0625 mg/L, action time 24 h",100%
same,mortality at 0.0625 µg/mL,"0.0625 mg/L, action time 36 h",100%
same,mortality at 0.0625 µg/mL,"0.0625 mg/L, action time 48 h",100%
same,mortality at 0.0625 µg/mL,"0.0625 mg/L, action time 60 h",100%
same,mortality at 0.0625 µg/mL,"0.0625 mg/L, action time 72 h",100%
same,mortality at 0.125 µg/mL,action time 0 h,0%
same,mortality at 0.125 µg/mL,action time 12 h,100%
same,mortality at 0.125 µg/mL,action time 24 h,100%
same,mortality at 0.125 µg/mL,action time 36 h,100%
same,mortality at 0.125 µg/mL,action time 48 h,100%
same,mortality at 0.125 µg/mL,action time 60 h,100%
same,mortality at 0.125 µg/mL,action time 72 h,100%
same,mortality at 0.25 µg/mL,action time 0 h,0%
same,mortality at 0.25 µg/mL,action time 12 h,100%
same,mortality at 0.25 µg/mL,action time 24 h,100%
same,mortality at 0.25 µg/mL,action time 36 h,100%
same,mortality at 0.25 µg/mL,action time 48 h,100%
same,mortality at 0.25 µg/mL,action time 60 h,100%
same,mortality at 0.25 µg/mL,action time 72 h,100%
same,mortality at 0.5 µg/mL,action time 0 h,0%
same,mortality at 0.5 µg/mL,action time 12 h,100%
same,mortality at 0.5 µg/mL,action time 24 h,100%
same,mortality at 0.5 µg/mL,action time 36 h,100%
same,mortality at 0.5 µg/mL,action time 48 h,100%
same,mortality at 0.5 µg/mL,action time 60 h,100%
same,mortality at 0.5 µg/mL,action time 72 h,100%
same,Pomacea canaliculata killing activity / control effect compared with niclosamide,overall conclusion from Tables 2 and 3,comparable to that of the niclosamide
same,killing effect on the Pomacea canaliculata (in words),overall conclusion from the examples,obvious killing effect
